Assay results: patent US4562199A, “Imidazole derivatives, compositions and use” (priority 1983, dated 1985)
Where a name gives a salt, the structure may show the parent alone.

Biological target: T1, Thromboxane A2 Synthetase (Equus caballus, UniProt A0A9L0T8T9)
T1 construct: [1-14C]arachidonic acid substrate, TXB2 by TLC
T1 sequence (A0A9L0T8T9 2-534): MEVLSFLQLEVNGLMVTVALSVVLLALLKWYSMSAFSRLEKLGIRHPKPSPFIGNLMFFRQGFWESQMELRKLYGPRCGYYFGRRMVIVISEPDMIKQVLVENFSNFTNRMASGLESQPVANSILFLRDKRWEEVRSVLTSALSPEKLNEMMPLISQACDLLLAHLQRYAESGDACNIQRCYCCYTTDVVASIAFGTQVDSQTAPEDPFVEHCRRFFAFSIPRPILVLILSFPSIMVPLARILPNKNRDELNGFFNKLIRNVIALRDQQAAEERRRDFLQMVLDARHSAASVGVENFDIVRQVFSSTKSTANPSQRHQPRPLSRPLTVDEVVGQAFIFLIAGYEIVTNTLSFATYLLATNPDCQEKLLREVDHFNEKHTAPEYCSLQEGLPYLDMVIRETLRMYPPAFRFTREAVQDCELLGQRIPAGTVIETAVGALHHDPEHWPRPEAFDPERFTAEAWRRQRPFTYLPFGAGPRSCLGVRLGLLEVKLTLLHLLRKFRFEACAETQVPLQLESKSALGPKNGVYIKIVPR
Experiment: Determination of Thromboxane A2 Synthetase Inhibitory Activity
Type: biochemical
Conditions: lysed platelets from horse PRP; [1-14C]-arachidonic acid; 3 min at 37° C.; Tris buffer pH 7.5; read-out: ED50 (concentration of active compound required to reduce the enzyme activity by 50%) (converted)
Procedure: The active compound was dissolved in a suitable solvent at a concentration of 5 mg/ml, and 20 μl added to 0.8 ml of 100 mM Tris buffer (pH 7.5).
The platelets from 5 ml of horse PRP were centrifuged and resuspended in 100 μl of Tris buffer. After lysis by sonication or freeze thawing, the platelet suspension was added to the solution of active compound and equilibrated for 5 min at room temperature. Then 300 ng (50 nCi) of [1-^14 -C]-arachidonic acid, dissolved in 100 μl Tris buffer, was added and the mixture incubated for 3 min at 37° C.
The reaction was stopped with 50 μl 2N HCl and the product extracted with 1.5 volumes ethyl acetate by whirling for 30 seconds. 1 ml saturated NaCl was added to the aqueous phase to prevent emulsion formation. The organic layer was removed, dried under N2 and the products redissolved in 50 μl chloroform/methanol mixture for quantitative spotting onto a TLC plate, and subsequent analysis.
The plate was developed in chloroform, methanol, acetic acid, water (90:8:1:0.8), dried and then visualised by autoradiography for 2-3 days.
The concentration of active compound required to reduce the enzyme activity by 50% (ED50) was established.

Structure (SMILES) | IC50 [nM]
O=C(O)/C=C/c1ccc(Cn2ccnc2)c(Cl)c1 [Example 3, (E)-3-[3-Chloro-4-(imidazol-1-ylmethyl)phenyl]prop-2-enoic acid hydrochloride] | 167
O=C(O)c1ccc(Cn2ccnc2)c(Cl)c1 [Example 1, 1-(4-Carboxy-2-chlorobenzyl)imidazole hydrochloride] | 24200
O=C(O)c1ccc(C=CCn2ccnc2)cc1Cl [Example 10, 1-[3-(4-Carboxy-3-chlorophenyl)prop-2-enyl]imidazole hydrochloride hemihydrate] | 1330
CCOC(=O)/C=C/c1ccc(Cn2ccnc2)c(Cl)c1 [Example 2, Ethyl (E)-3-[3-chloro-4-(imidazol-1-ylmethyl)phenyl]prop-2-enoate] | 1720
O=C(O)C=Cc1ccc(Cn2ccnc2)c(Br)c1 [Example 6, 3-[3-Bromo-4-(imidazol-1-ylmethyl)phenyl]prop-2-enoic acid hydrochloride hydrate] | 41.5
O=C(O)CCc1ccc(Cn2ccnc2)c(Cl)c1 [Example 4, 3-[3-Chloro-4-(imidazol-1-ylmethyl)phenyl]propanoic acid hydrochloride] | 266
